Test in all cases: biochemical
What all share (design): DiscoverX KinomeScan competition binding assay across human kinases; per cent of control at 10 and 100 uM

For experiment [1], the target named is T1, ABL1(E255K)-phosphorylated (Homo sapiens, UniProt P00519, E255K).
T1 construct: phosphorylated
As to conditions: competition binding, % of control. How it is done:
(§1) To validate our computational predictions, we employed a competition binding assay to detect the binding of levosimendan to 425 human kinases as well as its dose-response curve to RIOK1. The proprietary KinomeScan assay was performed by DiscoverX (Fremont, California, USA). The tests were performed at 10 μM and 100 μM concentrations of levosimendan, respectively. Assay results were reported as %control, calculated as follows: %control=(TestCompoundSignal−PositiveControlSignal)/(NegativeControlSignal−PositiveControlSignal)×100 KinomeScan assay across 452 human kinases verified our computational prediction (S1 Table). RIOK1 is one of the strongest inhibited kinases by levosimendan. The percentage control of RIOK1 is 15.0 and 0.0 under the treatment of 10 μM and 100 μM of levosimendan, respectively. […] The percentage controls of five kinases: FLT3, MAP2K5, PIP5K1A, GAK, and KIT are less than 30.0 under the treatment of both 10 μM and 100 μM of levosimendan. Both FLT3 and KIT are tyrosine protein kinases. Their inhibitors have recently been approved for the treatment of Acute Myeloid Leukemia and other types of cancers, but a combination therapy is needed to overcome rapidly emerged drug resistance, thus improve patients’ drug responses. Other kinases inhibited by levosimendan belong to serine/threonine protein kinase family (RIOK1, RIOK3, GAK, and MAP2K5) and lipid kinase family (PIP5K1A). […] As a result, levosimendan may modulate different cancer pathways from those by the tyrosine protein kinase inhibitors, and it could be a novel lead compound for a new anti-cancer therapy to overcome drug resistance of existing drugs or to target different types of cancers through polypharmacology or drug combination.

The target of the next experiment is AURKC (Homo sapiens, UniProt Q9UQB9). The following applies: competition binding, % of control; read-out: Percent Control (100 uM Levosimendan). How it is done: as §1
For a further experiment, the target named is CAMK2B (Homo sapiens, UniProt Q13554). As to conditions: competition binding, % of control; read-out: Percent Control (100 uM Levosimendan). How it is done: as §1
A further experiment has as its target CLK3 (Homo sapiens, UniProt P49761). The following applies: competition binding, % of control; read-out: Percent Control (100 uM Levosimendan). On the procedure: as §1
The target in the next experiment is DDR2 (Homo sapiens, UniProt Q16832). The following applies: competition binding, % of control; read-out: Percent Control (100 uM Levosimendan). How it is done: as §1
The target of the next experiment is EGFR(L858R) (Homo sapiens, UniProt P00533, L858R). The following applies: competition binding, % of control; read-out: Percent Control (100 uM Levosimendan). How it is done: as §1
For another experiment, the target named is EPHA1 (Homo sapiens, UniProt P21709). The following applies: competition binding, % of control; read-out: Percent Control (100 uM Levosimendan). On the procedure:
as §1

In another experiment the target is T2, ERK5 (Homo sapiens, UniProt Q13164).
T2 construct: gene MAPK7
The following applies: competition binding, % of control; read-out: Percent Control (100 uM Levosimendan). On the procedure:
as §1

The target in the next experiment is T3, JNK2 (Homo sapiens, UniProt P45984).
T3 construct: gene MAPK9
The following applies: competition binding, % of control; read-out: Percent Control (100 uM Levosimendan). How it is done: as §1

The target of a further experiment is LRRK2(G2019S) (Homo sapiens, UniProt Q5S007, G2019S). The following applies: competition binding, % of control; read-out: Percent Control (100 uM Levosimendan). How it is done:
as §1

Another experiment deals with MAP4K4 (Homo sapiens, UniProt O95819). The following applies: competition binding, % of control; read-out: Percent Control (100 uM Levosimendan). How it is done:
as §1

In a further experiment the target is MYLK (Homo sapiens, UniProt Q15746). As to conditions: competition binding, % of control. How it is done: as §1
Sequence of MYLK (Q15746 whole entry): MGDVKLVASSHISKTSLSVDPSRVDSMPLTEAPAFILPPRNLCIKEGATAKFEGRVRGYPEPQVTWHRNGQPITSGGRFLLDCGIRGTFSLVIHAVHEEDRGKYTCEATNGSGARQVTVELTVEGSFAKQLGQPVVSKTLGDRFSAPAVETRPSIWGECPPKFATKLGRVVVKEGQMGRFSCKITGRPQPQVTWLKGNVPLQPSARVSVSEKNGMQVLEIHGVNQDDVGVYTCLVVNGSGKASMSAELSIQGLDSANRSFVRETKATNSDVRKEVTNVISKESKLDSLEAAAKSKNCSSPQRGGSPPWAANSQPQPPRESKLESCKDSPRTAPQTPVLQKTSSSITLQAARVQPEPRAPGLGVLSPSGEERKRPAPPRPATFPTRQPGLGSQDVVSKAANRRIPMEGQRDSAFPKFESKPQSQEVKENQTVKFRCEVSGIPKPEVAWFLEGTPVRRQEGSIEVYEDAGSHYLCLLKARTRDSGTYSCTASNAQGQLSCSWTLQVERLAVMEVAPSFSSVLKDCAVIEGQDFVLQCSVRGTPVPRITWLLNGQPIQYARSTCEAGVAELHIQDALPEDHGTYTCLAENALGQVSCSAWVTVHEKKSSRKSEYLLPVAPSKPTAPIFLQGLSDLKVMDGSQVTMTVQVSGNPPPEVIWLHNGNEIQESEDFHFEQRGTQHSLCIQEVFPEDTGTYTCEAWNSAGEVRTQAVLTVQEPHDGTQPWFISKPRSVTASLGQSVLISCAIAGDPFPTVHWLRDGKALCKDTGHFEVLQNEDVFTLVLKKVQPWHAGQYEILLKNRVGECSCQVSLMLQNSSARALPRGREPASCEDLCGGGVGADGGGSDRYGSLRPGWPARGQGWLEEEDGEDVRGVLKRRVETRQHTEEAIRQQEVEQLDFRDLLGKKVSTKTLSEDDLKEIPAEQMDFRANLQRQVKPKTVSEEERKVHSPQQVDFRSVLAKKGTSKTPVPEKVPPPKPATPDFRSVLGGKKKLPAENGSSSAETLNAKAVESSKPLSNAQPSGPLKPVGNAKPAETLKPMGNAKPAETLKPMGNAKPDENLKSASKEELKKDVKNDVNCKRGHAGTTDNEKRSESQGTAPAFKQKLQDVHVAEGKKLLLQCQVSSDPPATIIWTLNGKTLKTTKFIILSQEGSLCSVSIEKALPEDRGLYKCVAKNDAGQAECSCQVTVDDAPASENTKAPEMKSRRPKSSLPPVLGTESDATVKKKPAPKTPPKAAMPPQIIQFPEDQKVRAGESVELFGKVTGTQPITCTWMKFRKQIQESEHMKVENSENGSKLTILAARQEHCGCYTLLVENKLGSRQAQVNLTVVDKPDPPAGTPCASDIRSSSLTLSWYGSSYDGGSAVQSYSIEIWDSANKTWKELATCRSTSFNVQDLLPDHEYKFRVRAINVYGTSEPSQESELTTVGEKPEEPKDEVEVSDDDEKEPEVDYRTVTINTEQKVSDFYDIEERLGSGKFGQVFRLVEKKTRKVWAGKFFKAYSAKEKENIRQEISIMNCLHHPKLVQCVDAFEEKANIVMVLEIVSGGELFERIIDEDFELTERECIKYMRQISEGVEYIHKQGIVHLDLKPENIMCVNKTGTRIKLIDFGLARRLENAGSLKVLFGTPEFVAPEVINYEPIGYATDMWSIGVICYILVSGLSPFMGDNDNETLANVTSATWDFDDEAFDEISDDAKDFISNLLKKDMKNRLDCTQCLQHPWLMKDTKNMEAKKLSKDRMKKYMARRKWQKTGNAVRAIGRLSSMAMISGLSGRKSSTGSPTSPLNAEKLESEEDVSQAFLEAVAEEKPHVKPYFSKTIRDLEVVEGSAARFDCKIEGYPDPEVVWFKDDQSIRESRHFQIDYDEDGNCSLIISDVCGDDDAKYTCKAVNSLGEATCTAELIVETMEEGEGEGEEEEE
A further experiment has as its target T4, PIP5K2B (Homo sapiens, UniProt P78356).
T4 construct: gene PIP4K2B
The following applies: competition binding, % of control. On the procedure: as §1

Another experiment concerns the target PRKD1 (Homo sapiens, UniProt Q15139). As to conditions: competition binding, % of control; read-out: Percent Control (100 uM Levosimendan). How it is done: as §1
The target in the next experiment is SRPK1 (Homo sapiens, UniProt Q96SB4). The following applies: competition binding, % of control. How it is done:
as §1

A further experiment concerns the target TBK1 (Homo sapiens, UniProt Q9UHD2). The following applies: competition binding, % of control. On the procedure: as §1
The target of the next experiment is WEE1 (Homo sapiens, UniProt P30291). The following applies: competition binding, % of control; read-out: Percent Control (100 uM Levosimendan). How it is done: as §1
The next experiment has as its target WNK4 (Homo sapiens, UniProt Q96J92). As to conditions: competition binding, % of control; read-out: Percent Control (100 uM Levosimendan). On the procedure:
as §1

Where [2] appears, read: read-out: Percent Control (10 uM Levosimendan).
Where [3] appears, read: read-out: Percent Control (100 uM Levosimendan).

T4 sequence (P78356 whole entry): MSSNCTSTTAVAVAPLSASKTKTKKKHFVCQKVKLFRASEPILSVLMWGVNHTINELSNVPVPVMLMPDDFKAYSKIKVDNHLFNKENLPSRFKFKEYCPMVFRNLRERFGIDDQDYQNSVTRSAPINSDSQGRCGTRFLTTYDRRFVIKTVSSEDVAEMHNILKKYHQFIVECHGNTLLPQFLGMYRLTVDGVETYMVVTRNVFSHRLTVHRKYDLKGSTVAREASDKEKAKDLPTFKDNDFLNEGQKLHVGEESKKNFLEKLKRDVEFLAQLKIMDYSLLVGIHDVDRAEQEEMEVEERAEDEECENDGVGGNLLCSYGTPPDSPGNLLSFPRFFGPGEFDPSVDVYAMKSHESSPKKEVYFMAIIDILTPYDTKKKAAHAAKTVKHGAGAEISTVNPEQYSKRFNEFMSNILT
Sequence of TBK1 (Q9UHD2 whole entry): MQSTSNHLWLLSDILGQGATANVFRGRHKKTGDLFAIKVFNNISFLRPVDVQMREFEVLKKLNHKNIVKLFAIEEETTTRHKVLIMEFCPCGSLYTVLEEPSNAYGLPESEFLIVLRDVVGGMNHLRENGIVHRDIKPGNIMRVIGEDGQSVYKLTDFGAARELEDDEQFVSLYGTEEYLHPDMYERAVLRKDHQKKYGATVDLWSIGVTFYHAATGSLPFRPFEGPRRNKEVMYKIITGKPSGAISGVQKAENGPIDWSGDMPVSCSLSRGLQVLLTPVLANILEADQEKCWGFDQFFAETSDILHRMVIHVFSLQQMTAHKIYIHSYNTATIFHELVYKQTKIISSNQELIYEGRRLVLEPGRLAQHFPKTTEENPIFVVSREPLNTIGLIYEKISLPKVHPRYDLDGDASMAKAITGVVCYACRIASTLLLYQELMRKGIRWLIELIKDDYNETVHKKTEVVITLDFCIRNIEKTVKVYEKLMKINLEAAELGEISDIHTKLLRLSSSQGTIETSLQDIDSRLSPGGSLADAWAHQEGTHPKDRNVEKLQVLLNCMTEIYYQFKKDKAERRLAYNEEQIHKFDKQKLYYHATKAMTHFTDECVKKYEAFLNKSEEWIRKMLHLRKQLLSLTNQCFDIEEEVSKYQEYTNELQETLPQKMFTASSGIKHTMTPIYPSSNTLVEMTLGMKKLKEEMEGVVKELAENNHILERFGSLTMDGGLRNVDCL
T1 sequence (P00519 whole entry E255K): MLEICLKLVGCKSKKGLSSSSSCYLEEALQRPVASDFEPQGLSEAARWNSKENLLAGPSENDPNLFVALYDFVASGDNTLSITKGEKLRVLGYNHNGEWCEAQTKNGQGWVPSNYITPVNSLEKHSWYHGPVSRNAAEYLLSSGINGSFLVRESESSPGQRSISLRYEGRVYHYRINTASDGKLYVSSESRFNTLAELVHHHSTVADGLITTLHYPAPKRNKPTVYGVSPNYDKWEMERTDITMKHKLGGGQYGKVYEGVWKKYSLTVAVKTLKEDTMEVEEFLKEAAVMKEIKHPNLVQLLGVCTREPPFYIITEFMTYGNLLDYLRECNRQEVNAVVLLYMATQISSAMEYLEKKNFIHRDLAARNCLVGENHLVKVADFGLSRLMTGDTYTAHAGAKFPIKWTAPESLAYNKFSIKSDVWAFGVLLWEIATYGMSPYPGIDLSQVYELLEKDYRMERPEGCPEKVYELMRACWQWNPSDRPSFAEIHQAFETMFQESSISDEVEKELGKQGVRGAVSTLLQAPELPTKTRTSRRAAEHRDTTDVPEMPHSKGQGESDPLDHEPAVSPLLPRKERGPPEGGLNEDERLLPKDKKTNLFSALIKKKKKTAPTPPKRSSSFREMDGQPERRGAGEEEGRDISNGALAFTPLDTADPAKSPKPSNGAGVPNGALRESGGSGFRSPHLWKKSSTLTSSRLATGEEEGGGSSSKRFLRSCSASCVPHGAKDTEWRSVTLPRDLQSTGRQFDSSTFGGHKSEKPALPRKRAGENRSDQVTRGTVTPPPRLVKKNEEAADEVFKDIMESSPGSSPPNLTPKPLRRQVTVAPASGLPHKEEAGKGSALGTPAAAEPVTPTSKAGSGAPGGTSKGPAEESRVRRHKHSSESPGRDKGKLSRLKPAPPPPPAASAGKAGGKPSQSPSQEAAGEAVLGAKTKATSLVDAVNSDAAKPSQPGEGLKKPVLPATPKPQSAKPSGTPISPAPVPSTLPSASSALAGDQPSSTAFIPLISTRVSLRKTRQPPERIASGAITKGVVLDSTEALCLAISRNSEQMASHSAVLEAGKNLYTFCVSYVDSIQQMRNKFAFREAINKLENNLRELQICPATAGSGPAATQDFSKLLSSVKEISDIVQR
Sequence of SRPK1 (Q96SB4 whole entry): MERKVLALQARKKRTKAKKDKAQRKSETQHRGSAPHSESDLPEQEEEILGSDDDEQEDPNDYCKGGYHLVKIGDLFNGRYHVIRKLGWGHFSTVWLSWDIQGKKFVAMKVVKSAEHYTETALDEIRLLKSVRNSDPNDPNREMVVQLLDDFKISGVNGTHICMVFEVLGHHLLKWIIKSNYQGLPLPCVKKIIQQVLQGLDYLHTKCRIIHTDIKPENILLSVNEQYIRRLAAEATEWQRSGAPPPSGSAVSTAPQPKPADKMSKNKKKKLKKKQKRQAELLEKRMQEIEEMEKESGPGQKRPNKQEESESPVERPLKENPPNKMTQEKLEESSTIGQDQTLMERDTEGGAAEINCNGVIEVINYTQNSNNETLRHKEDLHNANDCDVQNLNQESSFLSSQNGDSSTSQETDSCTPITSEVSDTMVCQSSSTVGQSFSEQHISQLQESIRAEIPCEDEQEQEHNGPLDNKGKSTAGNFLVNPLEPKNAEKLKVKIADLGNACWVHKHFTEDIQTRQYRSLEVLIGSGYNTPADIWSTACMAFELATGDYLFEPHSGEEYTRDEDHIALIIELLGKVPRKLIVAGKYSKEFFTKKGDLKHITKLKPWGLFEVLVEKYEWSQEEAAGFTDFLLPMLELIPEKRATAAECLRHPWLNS

Take `C[C@@H]1CC(=O)NN=C1c1ccc(NN=C(C#N)C#N)cc1` [levosimendan]: the remaining binding at 10 µM in experiment [1] (setting [2]) is 97%; on MYLK (setting [2]), 38%; at PIP5K2B (setting [2]) it was 92%; at SRPK1 (setting [2]), 36%; on TBK1 (setting [2]), 94%. The remaining binding at 100 µM was 34% in experiment [1] (setting [3]); 100% at AURKC; 90% on CAMK2B; 68% at CLK3; 79% at DDR2; 63% at EGFR(L858R). The remaining binding at 100 µM on EPHA1 came out at 98%; at ERK5 it was 100%; at JNK2 it was 100%; at LRRK2(G2019S), 100%; on MAP4K4 it was 100%; on MYLK (setting [3]), 32%. The remaining binding at 100 µM on PIP5K2B (setting [3]) was found to be 14%; on PRKD1, 96%; on SRPK1 (setting [3]), 40%; on TBK1 (setting [3]), 38%; at WEE1, 100%; at WNK4 it was 95%.

These data come from PMC6576746, “Rational discovery of dual-indication multi-target PDE/Kinase inhibitor for precision anti-cancer therapy using structural systems pharmacology” (PLoS Computational Biology, 2019).
